These results are taken from patent US20100093670A1, “Compounds for the treatment of angiogenesis” (priority 2006, published 2010).

“Also recorded” adds a separate entry of the source.

Common to all, as to type: cell-based, human
In experiment [1] the test system is HUVEC cells. Description: HUVEC migration, wound healing assay with time-lapse imaging. Conditions: for inhibition of HUVEC migration to the blank area: 24, 48 and 72 hr after treatment, compared to DMSO. An excerpt: Using the above described time-lapse culture system, a wound healing assay was used to analyze the effect of Compound 249 and CA4 on HUVEC cells migration. Confluent HUVEC cultures were scraped similarly to make a blank area. Migration of remaining cells under different treatment was imaged at the same time to generate time-lapse image sequences. Time-lapse movies were further analyzed to calculate the number of cells that migrated to the blank area. In FIG. 4, the gray lines show the front line of cells after scraping and the red lines show the front lines of cells after migration at 24, 48 and 72 hr after treatment.

Experiment [2] deals with HUVEC cells. Description: HUVEC cell morphology (shrinkage), time lapse imaging. The procedure: HUVEC cells (ATCC, VA) (passage number 4) were cultured in EGM2 medium (Cambrex, Mass.) on 24-well plates and time lapse imaging was performed in a cell culture system mounted on an inverted microscope supplied with 5% CO2. The temperature was kept at 35° C. Images were taken every 60 sec using 20× objective (FIGS. 1-3) or every 30 min using 2× objective (FIG. 4) for up to 90 hr. FIGS. 1-3 show results from three time points of treatment: 0, 50, 100 min. […] Most shrunken cells were at cell cycle interphase but not mitotic stage, and still moving on the culture surface, as observed in time-lapse movies (data not shown). The shrinking effect caused by Compound 249 (and CA4) is not identical to the apoptotic effect in mitotic cells after microtubule depolymerization.

The subject of experiment [3] is VE-cadherin junctions of HUVEC cells. Description: VE-cadherin junctions of HUVEC cells, immunostaining. To be noted: 24 hrs. The procedure:
It was thought that these phenotypic changes might be associated with alterations of endothelial cell junctions. To determine if Compound 249 induced disengagement of HUVEC cell junctions, VE-cadherin junctions of HUVEC cells were examined. HUVEC cells were treated with DMSO or Compound 249 (0.1, 1, or 10 nM) for 24 hrs and fixed for immunostaining. DMSO concentration was 1:100 for all treatment. To boost the immunofluorescence signal, cells were stained with a mixture of two polyclonal anti-human VE-cadherin Abs (1:1 mixed, obtained from Amersham Biosciences, N.J., and Santa Cruz Biotechnology, Calif.) followed by staining with a mixture of fluorescent secondary antibodies. […] Non-DMSO treated cells gave a similar result to those with DMSO treatment (data not shown). With 1 nM Compound 249 treatment, VE-cadherin staining was reduced (red arrow in Compound 249 1 nM) compared to that in DMSO or Compound 249 0.1 nM treatment. […] In addition, the potent effect of Compound 249 on microtubule cytoskeletons can also contribute strongly to the cell-cell junction disruption.

The mark [4] stands for this setting: 1 nM, compared to DMSO treatment.

As to `COc1ccc(-c2cnoc2-c2cc(OC)c(OC)c(OC)c2)cc1N` [Compound 249, 2-methoxy-5-(5-(3,4,5-trimethoxyphenyl)isoxazol-4-yl)aniline], in experiment [1], the “inhibitory effect on HUVEC migration in vitro (overall)” value is “potent inhibitory effect”. Moreover, in experiment [1] (1 nM), the “absolute migrated cell numbers (quantitative analysis, FIG. 5)” value (“absolute migrated cell numbers” for short) is given as “similar”; the “time after treatment at which the difference in migration inhibition between Compound 249 and CA4 was noticeable (FIG. 6)” value was ≤ 4 h; the “inhibition of HUVEC migration to the blank area” value (shortened to “inhibition … to the blank area”) is reported as “migration inhibition; also recorded: Inhibits HUVEC Migration; also recorded: significantly blocked migration; also recorded: inhibited HUVEC cell migration”. In experiment [1] (5 nM), the “absolute migrated cell numbers” value was “similar” and the “inhibition … to the blank area” value is recorded as “significantly blocked migration”. In addition, the “inhibition of HUVEC migration compared with CA4” value in experiment [1] (comparison Compound 249 vs CA4) was “stronger effect on both shrinkage and migration than CA4”. For the same compound, in experiment [2] (1 nM), the “time of treatment within which HUVEC cell shrinkage was caused” value is listed as ≤ 50 min and the “time of treatment within which HUVEC cell shrinkage was induced” value was ≤ 1 h. Besides, the “HUVEC cell shrinkage / morphological change” value in experiment [2] (setting [4]) is “Induces HUVEC Cell Shrinkage; also recorded: caused HUVEC cell shrinkage; also recorded: induced shrinkage of HUVEC cells”. Further, the “effect on HUVEC cell morphology (shrinkage) compared with CA4” value in experiment [2] (comparison Compound 249 vs CA4) was “stronger effect on both shrinkage and migration than CA4; also recorded: more potent effect on HUVEC cell morphology than CA4”. The “disengagement of VE-cadherin junctions” value in experiment [3] (1 nM) was “some of the VE-cadherin junctions were disengaged”. The “VE-cadherin staining at cell-cell junctions” value in experiment [3] (1 nM, compared to DMSO or 0.1 nM) was “reduced”. Further, in experiment [3] (10 nM), the “VE-cadherin staining at cell-cell junctions” value was “significantly abolished VE-cadherin staining” and the “disengagement of cell junctions” value is reported as “most of the cell junctions were disengaged”.
Turning to `COc1ccc(/C=C\c2cc(OC)c(OC)c(OC)c2)cc1O` [CA4, Combretastatin A4, reference compound], the entries for the “absolute migrated cell numbers” value in experiment [1] (1 nM) and in experiment [1] (5 nM) were “much less of an effect on HUVEC migration” and “similar”, respectively. Also, the “inhibition … to the blank area” value in experiment [1] (1 nM) was “did not block the migration event”; in experiment [1] (5 nM), “significantly blocked migration”. Also, the “HUVEC cell shrinkage / morphological change” value in experiment [2] (setting [4]) is given as “did not cause obvious morphological changes”; in experiment [2] (10 nM) it was “caused a similar change on HUVEC cells”.
